Results from US11400070B2, “Methods of treating retinal diseases” (Alimera Sciences, Inc., priority 2018, dated 2022).
Like-named read-outs stand apart in the source and are kept apart here.

Legend:
ARPE-19 monolayers [1] = test: Suppression of gHSA-induced reduction of TEER in confluent ARPE-19 monolayers; assay type: cell-based
ARPE-19 monolayers [2] = test: Cytotoxicity by microscopic inspection of monolayers and TEER reduction; assay type: cell-based; conditions: for Cytotoxic: ARPE-19 monolayers, any concentration tested; for Cytotoxicity observed: any of the concentrations tested
Procedure: Cytotoxicity of test compounds was assessed by microscopic inspection of cellular monolayers and reductions in TEER following the administration of test compounds. All compounds were formulated fresh on the day of the experiment. Final concentrations were prepared by serial dilutions in DMEM media. Separate vehicle controls were prepared for each study. Formulation for all agents utilized vehicles containing less than 0.1% DMSO.

rd10 mice [3] = test: Cone cell density in rd10 mice; assay type: in vivo, mouse; conditions: P65; 40 mg/kg daily s.c.; 4 quadrants
Procedure: (§1) Mice were treated in accordance with the Association for Research in Vision and Ophthalmology. Rd10^+/+ mice (B6.CXB1-Pde6brd10/J) were given daily subcutaneous injections of 40 mg/kg metipranolol provided by the British Pharmacopoeia Commission Laboratory, Tddington, UK or vehicle (PBS containing 5.8% ethanol) between P14 to P65.
Cone cell density was measured by methods known by one of skill in the arts. See Komeima K, Rogers B S, Lu L, Campochiaro P A. Antioxidants reduce cone cell death in a model of retinitis pigmentosa. Proc Natl Acad Sci USA 2006; 103:11300-5 and Komeima K, Rogers B S, Campochiaro P A. Antioxidants slow photoreceptor cell death in mouse models of retinitis pigmentosa. J Cell Physiol 2007; 213:809-15. Briefly, mice at P65 were euthanized and the eyes were removed and fixed in 4% PFA for 1 hour followed by dissection to remove cornea, iris and lens. The retina was carefully isolated from the eyecup and a small incision was made at the nasal position for future orientation. […] The retinas were flat mounted and visualized by fluorescence microscopy using an excitation wavelength of 543 nm to detect rhodamine fluorescence of PNA.

NADPH Oxidase = NADPH Oxidase activity in retinas of rd10 mice; assay type: in vivo, mouse
rd10 mice [4] = test: Outer nuclear layer (ONL) thickness in rd10 mice; assay type: in vivo, mouse; conditions: P35; 40 mg/kg daily s.c.; 6 locations measured
Procedure: as §1
Measurements of ONL thickness were performed using methods known to one of skill in the art. See Lee S Y, Usui S, Zafar A B, et al. N-acetylcysteine promotes long term survival of cones in a model of retinitis pigmentosa. 2010; 226:1843-9. Briefly, 10 micron frozen ocular sections were cut in the 12:00 to 6:00 meridian, stained with hematoxylin and eosin, visualized with an Axioskop microscope from Zeiss, Thornwood, N.Y. and images were digitized using a three charge-coupled device (CCD) color video camera from Toshiba, Tokyo, Japan, and a frame grabber. […] Three separate sections were used for each mouse and averaged. Eight animals injected with vehicle and 9 animals injected with metipranolol were used to evaluate ONL thickness between these two groups.

rd10 mice [5] = test: Scotopic and photopic electroretinogram recordings in rd10 mice; assay type: in vivo, mouse
Procedure: as §1
Scotopic and photopic electroretinograms (ERGs) were recorded using a Diagnosys instrument (Espion, Littleton, Mass.). See Komeima K, Rogers B S, Lu L, Campochiaro P A. Antioxidants reduce cone cell death in a model of retinitis pigmentosa. Proc Natl Acad Sci USA 2006; 103:11300-5 and Komeima K, Rogers B S, Campochiaro P A. Antioxidants slow photoreceptor cell death in mouse models of retinitis pigmentosa. J Cell Physiol 2007; 213:809-15. For scotopic recordings, rd10 mice were dark adapted for overnight, anesthetized with a mixture of ketamine (100 mg/kg) and xylazine (5 mg/kg) by intraperitoneal injections, and pupils were dilated with 0.5% tropicamide and 0.5% phenylephrine hydrochloride provided by Santen Pharmaceutical Co., Osaka, Japan. Mice were placed on a heating pad and platinum electrodes were placed on the corneas after application of gonioscopic prism solution provided by Alcon Labs, Fort Worth, Tex. Reference electrode was attached subcutaneously between the eyes on the scalp and a ground electrode was attached to the tail. The Ganzfeld illuminator was then placed over the head in a position to ensure equal illumination to both eyes. Scotopic ERGs were recorded at 11 flash intensities (−4, −2.5, −2.2, −1.79, −1.39, −1, −0.6, −0.39, −0.20, 1.0, 1.39 log cd-s/m2). For each flash intensity, 5 readings were taken and averaged. For photopic ERGs, mice were initially light adapted for 7 minutes with 30 cd/m2 background light and flashed at 3 light intensities (0.6, 1.0, 1.39 log cd-s/m2). For each flash intensity, 5 readings were taken and averaged.

rd10 mice [6] = test: Nitrite and nitrotyrosine assays in retinas of rd10 mice; assay type: in vivo, mouse; conditions: 40 mg/kg daily s.c.
Procedure: as §1
Nitrite concentration in retinas from P35 rd10 mice was measured using the Nitrate/Nitrite Colorimetric Assay Kit (Cayman Chemical Company, Ann Arbor, Mich.) according to the manufacturer's instructions. Nitrotyrosine assay was performed on retinas from P35 mice using the 3-Nitrotyrosine ELISA kit (Abcam, Cambridge, Mass.).

rd10 mice [7] = test: Superoxide radicals (dihydroethidium dye) in rd10 retinas; assay type: in vivo, mouse; conditions: data not shown
rd10 mice [8] = test: Immunohistochemistry (rhodopsin, cone arrestin, 3-nitrotyrosine) of rd10 retinas; assay type: in vivo, mouse; conditions: 40 mg/kg daily s.c.
Procedure: as §1
Ten microns ocular frozen sections were stained with anti-rhodopsin antibody 1D4 (1:200, ThermoFisher Scientific, Waltham, Mass.), anti-3-nitrotyrosine antibody (10 μg/ml, EMD Millipore, Temecula, Calif.) or anti-cone arrestin antibody (1:10,000, EMD Millipore, Temecula, Calif.).

rd10 mice [9] = test: TUNEL assay in retinas of rd10 mice; assay type: in vivo, mouse; conditions: P23; 40 mg/kg daily s.c.
Procedure: as §1
Apoptotic cells were identified in retinas from P23 mice using the manufacturer's instructions for the In Situ Cell Death Detection Kit (Sigma Aldrich, St. Louis, Mo.).

C57bl/6 female mice = test: Laser-induced choroidal neovascularization at Bruch's membrane rupture sites; assay type: in vivo, mouse; conditions: 40 mg/kg daily s.c., 3 days before to 1 week after laser
Procedure: Choroidal neovascularization was induced by methods known to one of ordinary skill in the art. […] Am J Pathol 1998; 153(5):1641-6. Adult C57bl/6 female mice (Charles River, Wilmington, Mass.), 5 weeks of age, were given daily subcutaneous injections of 40 mg/kg metipranolol or vehicle (PBS containing 5.8% ethanol) every day, starting 3 days before laser-induced Bruch's membrane rupture and continuing through 1 week after laser treatment. Mice were anesthetized, with a mixture of ketamine (100 mg/kg) and xylazine (5 mg/kg) by intraperitoneal injections, and pupils were dilated with 0.5% tropicamide and 0.5% phenylephrine hydrochloride from Santen Pharmaceutical Co., Osaka, Japan. […] Following 1 week after laser, animals were euthanized and choroidal neovascularization was measured. […] The remaining eyecups consisting of the retinal pigmented epithelium, choroid, and sclera were stained with FITC-labeled Griffonia Simplicifolia lectin (GSA), which selectively stains vascular cells, fluorescent images were captured with an Axioskop microscope from Zeiss, Thornwood, N.Y., and the area of choroidal neovascularization at Bruch's membrane rupture sites were measured. These images were quantified using Image-Pro Plus software. […]

**Q.** For `CC1(C)O[C@@H]2C[C@H]3[C@@H]4C[C@H](F)C5=CC(=O)C=C[C@]5(C)[C@@]4(F)[C@@H](O)C[C@]3(C)[C@]2(C(=O)CO)O1` [Fluocinolone, fluocinolone acetonide], which “Effect on reduction in TEER induced by gHSA” value (ARPE-19 monolayers [1]; pretreatment 10^−6 to 10^−4 M, gHSA 100 μg/mL) is on record?
**A.** did not significantly alter

**Q.** What about the Cytotoxic (ARPE-19 monolayers [2]) of the same compound?
**A.** No

**Q.** And the Cytotoxicity observed (ARPE-19 monolayers [2])?
**A.** No cytotoxicity was observed

**Q.** For `CC(=O)Oc1c(C)cc(OCC(O)CNC(C)C)c(C)c1C` (centres unmarked) [Metipranolol, metipranolol], which EC50 (ARPE-19 monolayers [1]; Homo sapiens, ARPE-19 assay, concentration-response, gHSA-induced TEER decrease, read-out: EC50) is on record?
**A.** 1300 nM

**Q.** And the “Mean cone photoreceptor cell density vs vehicle” value (rd10 mice [3])?
**A.** significantly greater in 3 of 4 quadrants

**Q.** And the “NADPH Oxidase activity” value (NADPH Oxidase)?
**A.** did not reduce NADPH Oxidase activity

**Q.** What about the “Mean ONL thickness vs vehicle” value (rd10 mice [4]) of the same compound?
**A.** significantly greater at 4 of the 6 locations

**Q.** And the Cytotoxic (ARPE-19 monolayers [2])?
**A.** No

**Q.** What about the Cytotoxicity observed (ARPE-19 monolayers [2]) of the same compound?
**A.** No cytotoxicity was observed

**Q.** What about the “Mean scotopic b-wave amplitude vs vehicle” value (rd10 mice [5]; P35, 40 mg/kg daily s.c. from P14, all 11 flash intensities) of the same compound?
**A.** significantly higher

**Q.** What about the “Mean scotopic a-wave amplitude vs vehicle” value (rd10 mice [5]; P35, 40 mg/kg daily s.c. from P14, flash 1.0 and 1.39 log cd-s/m2) of the same compound?
**A.** significantly greater

**Q.** And the “Photopic b-wave amplitudes vs vehicle” value (rd10 mice [5]; P35, 40 mg/kg daily s.c., 0.6 and 1.0 log cd-s/m2)?
**A.** significantly higher

**Q.** And the “Mean scotopic b-wave amplitude vs vehicle” value (rd10 mice [5]; P50, 40 mg/kg daily s.c., 1.0 and 1.39 log cd-s/m2)?
**A.** significantly higher

**Q.** What about the “Mean photopic b-wave amplitude vs vehicle” value (rd10 mice [5]; P50, 40 mg/kg daily s.c., 1.39 log cd-s/m2) of the same compound?
**A.** significantly greater

**Q.** And the “Mean concentration of nitrite in retinal homogenates” value (rd10 mice [6]; P35)?
**A.** significantly greater in retinal homogenates from P35 vehicle-treated versus metipranolol-treated rd10 mice

**Q.** What about the “Mean concentration of 3-nitrotyrosine protein adducts (ELISA) vs vehicle” value (rd10 mice [6]; P35 retinas) of the same compound?
**A.** significant reduction

**Q.** And the “Superoxide radicals (dihydroethidium dye) vs vehicle” value (rd10 mice [7])?
**A.** no differences were found

**Q.** And the “Rhodopsin staining of outer segments” value (rd10 mice [8]; P35)?
**A.** substantially more rhodopsin staining

**Q.** And the “Staining for cone arrestin” value (rd10 mice [8]; P50)?
**A.** robust

**Q.** What about the Staining for nitrotyrosine (rd10 mice [8]; P50) of the same compound?
**A.** greater staining for nitrotyrosine in retinas from P50 vehicle-treated rd10 mice, than in P50 metipranolol-treated rd10 mice

**Q.** And the “TUNEL-positive cells in retina” value (rd10 mice [9])?
**A.** few TUNEL-positive cells

**Q.** What about the “Area of choroidal neovascularization at Bruch's membrane rupture sites vs vehicle” value (C57bl/6 female mice) of the same compound?
**A.** significantly reduced

**Q.** What does the source list for `Cc1cc(OCC(O)CNC(C)C)c(C)c(C)c1O` (centres unmarked) [Desacetylmetipranolol, desacetylmetipranolol]?
**A.** Effect on gHSA induced reduction in RPE resistance (TEER) (ARPE-19 monolayers [1]; pretreatment 10 μM, 4 and 6 hours after gHSA): suppressed the gHSA induced reduction in RPE resistance; EC50 (ARPE-19 monolayers [1]; read-out: EC50 for suppression of the decrease in TEER induced by gHSA, pretreatment, gHSA 100 μg/mL): 980 nM; Cytotoxic (ARPE-19 monolayers [2]): No; Cytotoxicity observed (ARPE-19 monolayers [2]): No cytotoxicity was observed
